Key:
Assay type in all cases: in vivo, human
[1] = test system: sweat bromidrosis (axillary odor) of volunteers; assay: Self-assessment of improvement of armpit odor by individual queries, 4 weeks of spraying twice a day; conditions: after 4 weeks
Excerpt: 1. Application of Medical Treatment Composition of Example 1
2) Volunteers are selected from the group who can smell the ordor of sweat bromidrosis by sanitary cotton method and who smell over “mild” class.
3) Fifteen volunteers who were fitted for the above criteria and smell over “mild” class were selected.
(§1) Group I Test group with the composition of example 1
(§2) No one was allowed to use other cosmetics, perfume, and anti-germ soap not to influence any result.
Subjective judgment of odor degree through individual queries, which include:
4) degrees of improvement of odor level during the period of application; and
D) Percentage of Improvement by Self-Assessment
The degree of improvement of ordor after 4 weeks were measured by self-assessment. All of 15 persons replied over 50% of improvement in the experimental group, while 10 persons in comparison group expressed positive improvement and four persons' replied negative.

[2] = Side-effects reported by the volunteers during the 4-week application; conditions: 4 weeks, twice a day
[3] = test system: axillary odor of volunteers with sweat bromidrosis; assay: Measurement of axillary odor by sanitary cotton, graded by two medical doctors
Excerpt: 1) Sanitary cottons are kept in both armpits for ten minutes by two medical doctors' inspection of armpit odor for classification of 4 grades.
“minimal” is almost smell-less;
“mild” is available smell within distance of 15 cm;
“moderate” is further than distance of 15 cm; and
“severe” is beyond the distance of 30 cm.
as §1, §2
Measurements of axillary odor were decided according to the smell degree by means of sanitary cotton, which were classified into four (4) grades. Namely, sanitary cottons are kept in both armpits for ten minutes by two medical doctors' inspection of armpit odor for classification of 4 grades as shown in the Table 1:
(2) Judgment of Results: After two (2) and four (4) weeks of the application of the composition, the odor grades were judged by means of sanitary cottons from both armpits of the participants.
Measurement of axillary ordor was carried out by two medical doctors by using sanitary cottons in order to evaluate objectively as shown below

[4] = sprayed twice a day in armpit, 15 volunteers
[5] = 15 volunteers, objective odor grade

## CCO [80% ethanol, ethanol]
[1]; of 15
  Persons who expressed positive improvement (self-assessment): 10 persons
  Persons who replied negative (self-assessment): four
[1]; [4]
  Percentage of improvement by self-assessment: Got worse: 0 (0%) persons (%)
  Percentage of improvement by self-assessment: Improved 25%: 1 (7%) persons (%)
  Percentage of improvement by self-assessment: Improved 50%: 2 (13%) persons (%)
  Percentage of improvement by self-assessment: Improved 75%: 7 (47%) persons (%)
  Percentage of improvement by self-assessment: Improved 100%: 1 (7%) persons (%)
  Percentage of improvement by self-assessment: Not applicable: 4 (27%) persons (%)
[2]
  Number and percentage of side-effect: No side-effect: 12 (80%) persons (%)
[2]; slight tingle feel right after application
  Number and percentage of side-effect: Side effect: 3 (20%) persons (%)
[3]; 15 volunteers, after 4 weeks
  Degree of improvement: 1stage of improvement: 6 (40%) persons (%)
  Degree of improvement: 2 stage or more of improvement: 1 (7%) persons (%)
  Degree of improvement: no improvement: 8 (53%) persons (%)
[3]; [5]
  Initiating period of improvement: After 2 weeks: 1 (7%) persons (%)
  Initiating period of improvement: Not improved: 8 (53%) persons (%)
  Initiating period of improvement: Within 2 weeks: 6 (40%) persons (%)
[3]; after 4 weeks, out of 15
  Persons who showed improvement of odor grade: 7 persons
[3]; after 4 weeks, listed as Group II
  Persons among the improved who showed 2 stages or more of improvement: one and One
[3]; after two weeks application
  Persons among the improved with improvement after two weeks application: 6 persons

From patent US7749548B2, “Composite for the improvement of the smell of the armpit” (Ajou Medics Co., Ltd., priority 2004, dated 2010)
